# Assay results: patent US8304448B2, “Method for the treatment of metabolic disorder containing benzazole derivatives as an active ingredient” (Korea Research Institute of Bioscience and Biotechnology, priority 2006, dated 2012)
# Test system: DGAT
# Test: Assay for inhibitory activity against DGAT ([14C]triacylglycerol formation, rat microsomal protein)
# Type: biochemical
# Details: rat microsomal protein as enzyme source
smiles,measurement,setting,value
"O=C(NCc1ccco1)c1ccc2oc(COc3ccc(C45CC6CC(CC(C6)C4)C5)cc3)nc2c1 [Cpd. 22, 2-(4-adamantan-1-yl-phenoxymethyl)-benzoxazole-5-carboxylic acid (furan-2-ylmethyl)-amide]",DGAT (% inhibition in 5 μM),5 μM,42.8%
same,DGAT (% inhibition in 25 μM),25 μM,78.03%
